In patent US7348437B2, “Proteomic analysis” (The Scripps Research Institute, priority 2004, dated 2008):

Legend:
neprilysin = neprilysin (Homo sapiens, UniProt P08473); test: Inhibition of HxBP—Rh labeling of neprilysin in MUM-2B membrane proteome (competitive activity-based profiling, in-gel fluorescence); format: binding; conditions: 50 nM HxBP—Rh probe, three trials, 95% confidence limits 12-23 nM
Procedure: (§1) For labeling and detection of MPs using HxBP—Rh, the following technique can be used. […] Kidney and cancer cell proteomes, prepared as known to those having ordinary skill in the art, can be adjusted to 1 mg/ml in 50 mM Tris-HCl buffer (pH 8.0) prior to labeling. […] Labeled samples can be separated by SDS-PAGE, and visualized in-gel with a Hitachi FMBio IIe flatbed scanner (Mirabio). Integrated band intensities can be calculated from several independent labeling reactions, and averaged to provide the level of each enzyme activity in each sample.
(§2) For measuring the IC50 values for MP inhibitors using HxBP—Rh, the following technique can be used. IC50 values for neprilysin, dipeptidylpeptidase III (DPPIII), and leucine aminopeptidase (LAP) can be determined using Prism Software (Graph Pad) from dose-response curves of three trials at concentrations of GM6001 ranging from 0.001-20 μM and 50 nM HxBP—Rh probe. Neprilysin, DPPIII, and LAP assays can be conducted using MUM-2B membrane, MCF7 soluble, and mouse kidney soluble proteomes, respectively.
(§3) Right panels show the concentration-dependence of inhibition of HxBP—Rh labeling of by GM6001 (each data point corresponds to the average of three independent trials and is presented as a percentage of control reactions conducted without GM6001).

MMP-2 = molecular target: T1, MMP-2 (Homo sapiens, UniProt P08253); test: Activity-based labeling of purified MMP-2 added to mouse kidney proteome; conditions: GM6001 5 μM or TIMP-1 200 ng, HxBP—Rh 100 nM
T1 sequence (P08253 110-660): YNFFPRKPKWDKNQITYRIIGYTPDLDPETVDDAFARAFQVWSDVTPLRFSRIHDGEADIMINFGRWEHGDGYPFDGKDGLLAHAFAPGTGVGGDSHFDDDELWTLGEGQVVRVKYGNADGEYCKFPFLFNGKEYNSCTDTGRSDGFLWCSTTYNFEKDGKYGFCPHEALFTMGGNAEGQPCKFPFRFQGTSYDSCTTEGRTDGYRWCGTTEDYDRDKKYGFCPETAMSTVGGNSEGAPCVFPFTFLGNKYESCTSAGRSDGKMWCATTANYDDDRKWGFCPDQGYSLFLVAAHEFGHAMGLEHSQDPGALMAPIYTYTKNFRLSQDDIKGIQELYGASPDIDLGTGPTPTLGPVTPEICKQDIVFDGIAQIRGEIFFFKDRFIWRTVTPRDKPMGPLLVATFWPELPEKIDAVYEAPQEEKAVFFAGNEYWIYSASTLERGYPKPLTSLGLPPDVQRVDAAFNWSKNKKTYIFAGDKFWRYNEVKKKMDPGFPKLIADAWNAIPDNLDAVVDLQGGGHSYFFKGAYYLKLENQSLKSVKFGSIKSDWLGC
Procedure: For labeling and detection of MPs using HxBP—Rh, the following technique can be used. Purified MMP-2 can be diluted in buffer 1 (30 ng of enzyme) and mixed with 100 nM HxBP—Rh in the presence or absence of 5 μM GM6001 or TIMP-1 (80 ng). These mixtures can be pre-incubated on ice for 15 min prior to irradiation at 365 nm for 1 hour (on ice) followed by quenching with one volume of standard 2× SDS/PAGE loading buffer (reducing). Kidney and cancer cell proteomes, prepared as known to those having ordinary skill in the art, can be adjusted to 1 mg/ml in 50 mM Tris-HCl buffer (pH 8.0) prior to labeling. […] Labeled samples can be separated by SDS-PAGE, and visualized in-gel with a Hitachi FMBio IIe flatbed scanner (Mirabio). Integrated band intensities can be calculated from several independent labeling reactions, and averaged to provide the level of each enzyme activity in each sample.
With the reference to FIG. 3A, purified MMP-2 (100 ng) or pro-MMP-2 (100 ng) were added to a mouse kidney proteome (15 μL, 1 μg protein/μL) and treated with HxBP—Rh (100 nM) for 15 min prior to photocrosslinking and analysis by SDS-PAGE and in-gel fluorescence scanning.
FIG. 3B illustrates HxBP—Rh labeling of a serial dilution of purified MMP-2 added to a mouse kidney proteome.

[1] = molecular target: T2, dipeptidylpeptidase III (DPPIII) (Homo sapiens, UniProt Q9NY33); test: Inhibition of HxBP—Rh labeling of dipeptidylpeptidase III in MCF7 soluble proteome
T2 sequence (Q9NY33 1-737): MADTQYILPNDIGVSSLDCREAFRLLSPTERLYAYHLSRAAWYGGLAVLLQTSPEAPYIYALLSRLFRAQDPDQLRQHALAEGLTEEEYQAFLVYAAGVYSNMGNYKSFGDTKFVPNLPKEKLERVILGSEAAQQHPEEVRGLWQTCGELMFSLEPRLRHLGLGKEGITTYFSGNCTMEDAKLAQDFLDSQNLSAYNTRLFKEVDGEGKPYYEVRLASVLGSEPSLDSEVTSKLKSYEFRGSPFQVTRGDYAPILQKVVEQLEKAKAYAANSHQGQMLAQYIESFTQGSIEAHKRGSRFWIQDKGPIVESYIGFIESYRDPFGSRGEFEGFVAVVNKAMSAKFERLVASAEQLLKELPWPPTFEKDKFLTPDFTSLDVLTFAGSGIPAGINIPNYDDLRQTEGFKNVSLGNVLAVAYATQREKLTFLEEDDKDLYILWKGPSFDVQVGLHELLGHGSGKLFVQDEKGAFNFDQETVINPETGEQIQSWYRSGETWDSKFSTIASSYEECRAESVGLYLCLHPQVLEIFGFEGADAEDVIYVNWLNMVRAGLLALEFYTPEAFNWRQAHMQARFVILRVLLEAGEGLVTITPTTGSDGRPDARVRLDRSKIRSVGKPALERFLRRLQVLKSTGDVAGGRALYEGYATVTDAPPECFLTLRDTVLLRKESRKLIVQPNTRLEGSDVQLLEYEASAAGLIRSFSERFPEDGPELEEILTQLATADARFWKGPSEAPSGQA
Procedure: For labeling and detection of MPs using HxBP—Rh, the following technique can be used. […] Kidney and cancer cell proteomes, prepared as known to those having ordinary skill in the art, can be adjusted to 1 mg/ml in 50 mM Tris-HCl buffer (pH 8.0) prior to labeling. A portion of each cancer cell line proteome sample can be treated with PNGaseF (New England Biolabs) to provide deglycosylated proteomes, as known to those having ordinary skill in the art. Labeled samples can be separated by SDS-PAGE, and visualized in-gel with a Hitachi FMBio IIe flatbed scanner (Mirabio). Integrated band intensities can be calculated from several independent labeling reactions, and averaged to provide the level of each enzyme activity in each sample.
as §2
Shown is a representative HxBP—Rh labeling (100 nM) profile of the soluble proteome from MCF-7 cells. […]

[2] = molecular target: T3, leucine aminopeptidase (LAP) (Mus musculus, UniProt Q9CPY7); test: Inhibition of HxBP—Rh labeling of leucine aminopeptidase in mouse kidney soluble proteome
T3 sequence (Q9CPY7 1-519): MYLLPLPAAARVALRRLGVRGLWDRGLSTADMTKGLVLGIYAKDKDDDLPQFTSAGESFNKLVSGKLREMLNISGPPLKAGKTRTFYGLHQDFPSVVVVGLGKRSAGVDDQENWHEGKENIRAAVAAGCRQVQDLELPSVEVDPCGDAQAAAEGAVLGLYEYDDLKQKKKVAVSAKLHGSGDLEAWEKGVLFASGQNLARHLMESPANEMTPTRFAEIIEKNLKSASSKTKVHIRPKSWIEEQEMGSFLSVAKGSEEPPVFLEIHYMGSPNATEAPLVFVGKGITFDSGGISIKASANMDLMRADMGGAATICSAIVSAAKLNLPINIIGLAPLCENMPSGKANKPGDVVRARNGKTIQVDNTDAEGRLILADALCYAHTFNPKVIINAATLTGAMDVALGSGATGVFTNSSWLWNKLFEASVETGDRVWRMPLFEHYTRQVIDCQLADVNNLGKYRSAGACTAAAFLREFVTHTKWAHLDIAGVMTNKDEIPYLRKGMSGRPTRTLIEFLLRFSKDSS
Procedure: as §1, §2, §3

Chain of neprilysin (P08473 whole entry): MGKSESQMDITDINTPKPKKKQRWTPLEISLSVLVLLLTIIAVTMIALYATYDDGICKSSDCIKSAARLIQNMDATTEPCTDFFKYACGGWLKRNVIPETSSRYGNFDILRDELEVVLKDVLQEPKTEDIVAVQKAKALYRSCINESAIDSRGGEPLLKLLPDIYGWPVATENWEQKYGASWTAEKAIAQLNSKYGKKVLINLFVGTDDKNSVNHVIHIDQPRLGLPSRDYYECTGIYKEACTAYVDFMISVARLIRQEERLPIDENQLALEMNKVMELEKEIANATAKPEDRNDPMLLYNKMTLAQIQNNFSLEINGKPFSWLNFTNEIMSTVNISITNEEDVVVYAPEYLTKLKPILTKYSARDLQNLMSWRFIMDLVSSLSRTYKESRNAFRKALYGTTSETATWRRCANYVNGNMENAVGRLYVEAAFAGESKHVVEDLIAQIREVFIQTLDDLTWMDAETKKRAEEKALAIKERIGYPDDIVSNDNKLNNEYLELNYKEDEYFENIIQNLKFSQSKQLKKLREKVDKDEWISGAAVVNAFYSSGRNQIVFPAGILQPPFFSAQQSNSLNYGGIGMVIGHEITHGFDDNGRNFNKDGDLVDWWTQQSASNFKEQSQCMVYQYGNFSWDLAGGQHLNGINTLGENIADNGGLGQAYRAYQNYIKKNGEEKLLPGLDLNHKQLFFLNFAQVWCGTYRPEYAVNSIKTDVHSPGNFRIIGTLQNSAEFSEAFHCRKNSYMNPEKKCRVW

Row | Molecule | IC50 (neprilysin) | Effect on HxBP—Rh labeling of MMP-2 in whole proteome (MMP-2) | IC50 [1] | Effect on HxBP—Rh labeling of ~80 kDa protein (DPPIII) ([1]; GM6001 5 μM, HxBP—Rh 100 nM, soluble proteome from MCF-7 cells) | IC50 [2]
1 | CNC(=O)[C@H](Cc1c[nH]c2ccccc12)NC(=O)[C@@H](CC(=O)NO)CC(C)C [GM6001] | 17 nM | blocked | 76 nM | blocked | 111 nM
2 | TIMP-1: inhibitor of MMP-2 used to block probe labeling |  | blocked |  |  | 
